Drawing on patent US10131648B2, “Substituted benzothiophenyl derivatives as GPR40 agonists for the treatment of type II diabetes” (Janssen Pharmaceutica NV, priority 2014, dated 2018), this text covers EC50 for 29 molecules.

Each structure is given as a SMILES string. “And” between values parts separate entries of the source, which are not always exact repeats. Identical values can stand only once.

Chain of human GPR40 (O14842 whole entry): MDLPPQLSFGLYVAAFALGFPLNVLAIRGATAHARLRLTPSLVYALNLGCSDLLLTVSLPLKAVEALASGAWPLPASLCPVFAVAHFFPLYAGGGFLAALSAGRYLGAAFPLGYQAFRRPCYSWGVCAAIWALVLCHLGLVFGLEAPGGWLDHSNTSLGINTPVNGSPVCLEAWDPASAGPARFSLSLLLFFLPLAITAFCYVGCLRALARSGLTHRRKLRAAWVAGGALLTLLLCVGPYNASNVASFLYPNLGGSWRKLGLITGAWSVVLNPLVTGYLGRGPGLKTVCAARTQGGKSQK

This experiment deals with human GPR40 (Homo sapiens (Human), UniProt O14842). The experiment is described as follows: GPR40 Calcium Flux Assay. The format is cell-based. Particulars: transfected HEK293 cells stably expressing human GPR40; Ca2+ mobilization; mean data; read-out: hGPR40 Ca^2+ Assay EC50. The protocol:
Compounds were tested in a calcium flux assay using transfected HEK293 cells stably expressing either human GPR40 or rat GPR40. Human GPR40 expressing cells were cultured in DMEM-High Glucose media supplemented with 10% fetal bovine serum, 1×L-Glutamine, 1×Penicillin/Streptomycin and 500 μg/mL G418. Rat GPR40 expressing cells were cultured in DMEM-High Glucose media supplemented with 10% fetal bovine serum and 1 μg/mL puromycin. Cells were plated into poly-D-lysine coated 384-well plates and cultured overnight in a 37° C. humidified tissue culture incubator under 5% CO2/[…] atmosphere. On the day of the experiment, the culture media was replaced with assay buffer (HBSS, 20 mM HEPES, 0.1% BSA) and the cells incubated at 37° C. for 1 h. Calcium-sensitive fluorescent dye (Fluo 8 No-Wash Calcium Dye, ABD Bioquest) was then added and the cells incubated for another 30 min at 37° C. followed by 15 min at room temperature while protected from the light. The cell plate and a plate of diluted compounds of Formula (I) were loaded into a fluorescent plate reader that added compounds onto the cells while measuring the fluorescence intensity of each well. The plate reader recorded fluorescence intensity at 1 second intervals for 8 min and provided the data for analysis in an Excel format. EC50 values were calculated using Prism (GraphPad) software.
(Calcium assays in cells follow changes in intracellular calcium, usually with a dye or a luminescent sensor.)
With `CC#C[C@@H](CC(=O)O)c1ccc(COc2ccc3scc(-c4ccc(OCC5(C)COC5)cc4C)c3c2)cc1` [Cpd 56, (3S)-3-(4-[[(3-[2-Methyl-4-[(3-methyloxetan-3-yl)methoxy]phenyl]-1-benzothiophen-5-yl)oxy]methyl]phenyl)hex-4-ynoic acid], the EC50 (usually the concentration at which the effect is half-maximal) was 34 nM.
As for `CC#C[C@@H](CC(=O)O)c1ccc(COc2ccc3scc(-c4ccc(OC5CCOCC5)cc4C)c3c2)cc1` [Cpd 57, (3S)-3-[4-[([3-[2-Methyl-4-(oxan-4-yloxy)phenyl]-1-benzothiophen-5-yl]oxy)methyl]phenyl]hex-4-ynoic acid], the EC50 was determined as 17 nM.
As to `CC#C[C@@H](CC(=O)O)c1ccc(COc2ccc3scc(-c4ccc(OCCOC)cc4C)c3c2)cc1` [Cpd 58, (3S)-3-[4-[([3-[4-(2-Methoxyethoxy)-2-methylphenyl]-1-benzothiophen-5-yl]oxy)methyl]phenyl]hex-4-ynoic acid], the EC50 was 14 nM.
As to `CC#C[C@@H](CC(=O)O)c1ccc(COc2ccc3scc(-c4ccc(OCC5CCS(=O)(=O)CC5)cc4C)c3c2)cc1` [Cpd 59, (3S)-3-{4-[((3-{4-[(1,1-Dioxo-tetrahydro-2H-thiopyran-4-yl)methoxy]-2-methylphenyl}-1-benzothiophen-5-yl)oxy)methyl]phenyl}hex-4-ynoic acid], the EC50 amounted to 14 nM.
For the molecule `CC#C[C@@H](CC(=O)O)c1ccc(COc2ccc3scc(-c4ccc(OCC5(C)CS(=O)(=O)C5)cc4C)c3c2)cc1` [Cpd 60, (3S)-3-(4-(((3-(2-Methyl-4-((3-methyl-1,1-dioxidothietan-3-yl)methoxy)phenyl)benzo[b]thiophen-5-yl)oxy)methyl)phenyl)hex-4-ynoic acid], the EC50 amounted to 70 nM.
Consider `CC#CC(CC(=O)O)c1ccc(OCc2ccc3scc(-c4ccc(OCCC(C)(C)O)cc4C)c3c2)nc1` (centres unmarked) [Cpd 61], for which the EC50 is 16 nM.
As to `CC#CC(CC(=O)O)c1ccc(OCc2ccc3scc(-c4ccc(OCC(O)CO)cc4C)c3c2)nc1` (centres unmarked) [Cpd 62, 3-(6-((3-(4-(2,3-Dihydroxypropoxy)-2-methylphenyl)benzo[b]thiophen-5-yl)methoxy)pyridin-3-yl)hex-4-ynoic acid], the 50% effective concentration (EC50) was determined as 10 nM.
On to `CC#CC(CC(=O)O)c1ccc(OCc2ccc3scc(-c4ccc(OCC5CCS(=O)(=O)CC5)cc4C)c3c2)nc1` (centres unmarked) [Cpd 63, 3-(6-((3-(4-((1,1-Dioxidotetrahydro-2H-thiopyran-4-yl)methoxy)-2-methylphenyl)benzo[b]thiophen-5-yl)methoxy)pyridin-3-yl)hex-4-ynoic acid], for which the EC50 came to 10 nM.
As for `CC#CC(CC(=O)O)c1ccc(OCc2ccc3scc(-c4ccc(OCC5(C)CS(=O)(=O)C5)cc4C)c3c2)nc1` (centres unmarked) [Cpd 64, 3-(6-((3-(2-Methyl-4-((3-methyl-1,1-dioxidothietan-3-yl)methoxy)phenyl)benzo[b]thiophen-5-yl)methoxy)pyridin-3-yl)hex-4-ynoic acid], the 50% effective concentration (EC50) is 21 nM.
The result for `CC#C[C@@H](CC(=O)O)c1ccc(OCc2ccc3scc(-c4cc(OCCOC)ccc4C)c3c2)cc1` [Cpd 65, (3S)-3-[4-([3-[5-(2-Methoxyethoxy)-2-methylphenyl]-1-benzothiophen-5-yl]methoxy)phenyl]hex-4-ynoic acid] reads 11 nM; that for `CC#C[C@@H](CC(=O)O)c1ccc(OCc2ccc3scc(-c4c(C)cccc4OCCOC)c3c2)cc1` [Cpd 66, (3S)-3-[4-([3-[2-(2-Methoxyethoxy)-6-methylphenyl]-1-benzothiophen-5-yl]methoxy)phenyl]hex-4-ynoic acid], 14 nM; that for `CC#C[C@@H](CC(=O)O)c1ccc(OCc2ccc3scc(-c4cccc(OCCOC)c4C)c3c2)cc1` [Cpd 67, (3S)-3-[4-([3-[3-(2-Methoxyethoxy)-2-methylphenyl]-1-benzothiophen-5-yl]methoxy)phenyl]hex-4-ynoic acid], 9 nM.
Turning to `CC#C[C@@H](CC(=O)O)c1ccc(OCc2ccc3scc(-c4ccccc4OCCOC)c3c2)cc1` [Cpd 68, (3S)-3-[4-([3-[2-(2-Methoxyethoxy)phenyl]-1-benzothiophen-5-yl]methoxy)phenyl]hex-4-ynoic acid], the EC50 amounted to 19 nM.
As to `CC#C[C@H](CC(=O)O)c1ccc(OCc2ccc3scc(-c4ccc(OCCC(C)(C)O)cc4C)c3c2)nc1` [Cpd 70, (3S)-3-(6-((3-(4-(3-Hydroxy-3-methylbutoxy)-2-methylphenyl)benzo[b]thiophen-5-yl)methoxy)pyridin-3-yl)hex-4-ynoic acid], the EC50 was 500 nM.
For the molecule `CC#C[C@@H](CC(=O)O)c1ccc(OCc2ccc3scc(-c4ccc(OCCC(C)(C)O)cc4C)c3c2)nc1` [Cpd 71, (3R)-3-(6-((3-(4-(3-Hydroxy-3-methylbutoxy)-2-methylphenyl)benzo[b]thiophen-5-yl)methoxy)pyridin-3-yl)hex-4-ynoic acid], the EC50 is 12 nM.
Take `CC#C[C@H](CC(=O)O)c1ccc(OCc2ccc3scc(-c4ccc(OCC5CCOCC5)cc4C)c3c2)nc1` [Cpd 72, (3S)-3-(6-((3-(2-Methyl-4-((tetrahydro-2H-pyran-4-yl)methoxy)phenyl)benzo[b]thiophen-5-yl)methoxy)pyridin-3-yl)hex-4-ynoic acid]: the EC50 turned out to be 1330 nM.
For the molecule `CC#C[C@@H](CC(=O)O)c1ccc(OCc2ccc3scc(-c4ccc(OCC5CCOCC5)cc4C)c3c2)nc1` [Cpd 73, (3R)-3-(6-((3-(2-Methyl-4-((tetrahydro-2H-pyran-4-yl)methoxy)phenyl)benzo[b]thiophen-5-yl)methoxy)pyridin-3-yl)hex-4-ynoic acid], the EC50 came out at 13 nM.
Then `CC#C[C@H](CC(=O)O)c1ccc(OCc2ccc3scc(-c4ccc(OCC5CCS(=O)(=O)CC5)cc4C)c3c2)nc1` [Cpd 74, (3S)-3-(6-((3-(4-((1,1-Dioxidotetrahydro-2H-thiopyran-4-yl)methoxy)-2-methylphenyl)benzo[b]thiophen-5-yl)methoxy)pyridin-3-yl)hex-4-ynoic acid], with 180 nM; and `CC#C[C@@H](CC(=O)O)c1ccc(OCc2ccc3scc(-c4ccc(OCC5CCS(=O)(=O)CC5)cc4C)c3c2)nc1` [Cpd 75, (3R)-3-(6-((3-(4-((1,1-Dioxidotetrahydro-2H-thiopyran-4-yl)methoxy)-2-methylphenyl)benzo[b]thiophen-5-yl)methoxy)pyridin-3-yl)hex-4-ynoic acid], with 7 nM.
For the molecule `CC#C[C@H](CC(=O)O)c1ccc(OCc2ccc3scc(-c4ccc(OCCOC)cc4C)c3c2)nc1` [Cpd 76, (3S)-3-(6-((3-(4-(2-Methoxyethoxy)-2-methylphenyl)benzo[b]thiophen-5-yl)methoxy)pyridin-3-yl)hex-4-ynoic acid], the EC50 is 830 nM.
As to `CC#C[C@@H](CC(=O)O)c1ccc(OCc2ccc3scc(-c4ccc(OCCOC)cc4C)c3c2)nc1` [Cpd 77, (3R)-3-(6-((3-(4-(2-Methoxyethoxy)-2-methylphenyl)benzo[b]thiophen-5-yl)methoxy)pyridin-3-yl)hex-4-ynoic acid], the EC50 is 16 nM and 6 nM and 5 nM.
The result for `CC#C[C@@H](CC(=O)O)c1ccc(OCc2ccc3scc(-c4cccnc4OC)c3c2)cc1` [Cpd 78, (3S)-3-(4-((3-(2-Methoxypyridin-3-yl)benzo[b]thiophen-5-yl)methoxy)phenyl)hex-4-ynoic acid] reads 9 nM.
Regarding `CC#C[C@@H](CC(=O)O)c1ccc(OCc2ccc3scc(-c4ccccc4OC)c3c2)cc1` [Cpd 79, (3S)-3-(4-((3-(2-Methoxyphenyl)benzo[b]thiophen-5-yl)methoxy)phenyl)hex-4-ynoic acid], the EC50 was found to be 28 nM.
For the molecule `CC#C[C@@H](CC(=O)O)c1ccc(OCc2ccc3scc(-c4ccc(OC)nc4C)c3c2)cc1` [Cpd 80, (3S)-3-(4-((3-(6-Methoxy-2-methylpyridin-3-yl)benzo[b]thiophen-5-yl)methoxy)phenyl)hex-4-ynoic acid], the EC50 was determined as 20 nM.
Take `CC#C[C@@H](CC(=O)O)c1ccc(OCc2ccc3scc(-c4cnccc4OC)c3c2)cc1` [Cpd 81, (3S)-3-(4-((3-(4-Methoxypyridin-3-yl)benzo[b]thiophen-5-yl)methoxy)phenyl)hex-4-ynoic acid]: the EC50 came out at 11 nM.
Then `CC#C[C@@H](CC(=O)O)c1ccc(OCc2ccc3scc(-c4cnc(OC)cc4C)c3c2)cc1` [Cpd 82, (3S)-3-(4-((3-(6-Methoxy-4-methylpyridin-3-yl)benzo[b]thiophen-5-yl)methoxy)phenyl)hex-4-ynoic acid], with 37 nM; and `CC#C[C@@H](CC(=O)O)c1ccc(OCc2ccc3scc(-c4ccncc4OC)c3c2)cc1` [Cpd 83, (3S)-3-(4-((3-(3-Methoxypyridin-4-yl)benzo[b]thiophen-5-yl)methoxy)phenyl)hex-4-ynoic acid], with 10 nM.
Consider `CC#C[C@@H](CC(=O)O)c1ccc(OCc2ccc3scc(-c4ncc(OC)cc4C)c3c2)cc1` [Cpd 84, (3S)-3-(4-((3-(5-Methoxy-3-methylpyridin-2-yl)benzo[b]thiophen-5-yl)methoxy)phenyl)hex-4-ynoic acid], for which the EC50 is 52 nM.
Regarding `CC#C[C@@H](CC(=O)O)c1ccc(OCc2ccc3scc(-c4ccccc4C)c3c2)nc1` [Cpd 85, (3R)-3-[6-[[3-(2-Methylphenyl)benzo[b]thiophen-5-yl]methoxy]pyridin-3-yl]hex-4-ynoic acid], the EC50 is 7 nM and 6 nM.
